According to US20060160114A1, “Reagents and methods for predicting drug resistance” (Oncotech, Inc., priority 2004, published 2006):

System: tumor cells from patient tumor samples
Test: Extreme Drug Resistance (EDR) assay, tritiated thymidine incorporation in soft agarose culture
Assay type: cell-based, human
Conditions: supratoxic dose 33 μM, positive (background) control group
Method: In the practice of this assay, tumor cells are taken from a cancer biopsy and exposed to cancer chemotherapeutics in culture. During the culture period, radioactive thymidine is added, which is incorporated into the DNA of growing and dividing cancer cells (which are thus resistant to the cytostatic or cytotoxic effects of the cancer chemotherapeutic). Tritiated thymidine is not incorporated into cells that are sensitive to the drug and reduce or suspend growth and division in response to the drug. […] By measuring the amount of radioactivity in a sample, the assay determines the relative resistance of an individual patient's cancer cells to a number of different chemotherapies. […]
The EDR assay is an agarose-based culture system, using tritiated thymidine incorporation to define in vitro drug response. […] The radioactivity trapped on the filters was counted with an LS-6500 scintillation Counter (Beckman, Fullerton, Calif.). […] Detectable radioactivity for this group was considered non-specific background related to debris trapping of tritiated thymidine on the filter. After subtracting background control values, percent control inhibition (PCI) of proliferation was determined by comparing thymidine incorporation by the treatment group with incorporation by the negative control group: PCI=100%×[1−(CPM treatment group/CPM control group)]. […]

Question: How did the cell death turn out when `N.N.[Cl][Pt][Cl]` [Cisplatin] was run?
Answer: Its cell death is 100%.
